Assay results taken from patent US5162328A, “N-[3-[2-(1H-imidazol-1-yl)ethoxy]phenyl]-4-(2-thienyl)-2-pyrimidinamine and pharmacologically acceptable salts” (American Cyanamid Company, priority 1991, dated 1992).
Like-named read-outs stand apart in the source and are kept apart here.

Assay: Pharmacokinetics in dogs (plasma concentration by HPLC)
Assay type: in vivo, dog (beagle)
Details: dog; for concentration at 0.5 h / concentration at 1 h / concentration at 2 h / concentration at 4 h / concentration at 7 h / concentration at 12 h / AUC(0-t) / Cmax / Tmax / half-life / AUC(0-inf): plasma, po, 2 mg/kg/day, 2 mg/kg/day PO; for AUC(0-inf): read-out: AUCO- (to infinite time)
Description: Since dogs are used in toxicology studies of antiasthma compounds, this species is chosen for pharmacokinetic evaluations. Use of the dog permits the pharmacokinetic comparison of 2 or more compounds in the same test animal, an evaluation which could not be conveniently performed in a smaller species. For each test compound, normal dogs are given a dose of 2.0 mg/kg/day for 5 consecutive days. There is a washout period of 1 month between the study of each of the test compounds in the same four dogs. Each test compound is administered as a solution of 5 mg/ml in either 0.05 or 0.1N HCl which is dispensed into a gelatin capsule immediately prior to dosage.
Heparinized blood samples are obtained from each animal on the first, third and fifth day of dosage at 0.5, 1.0, 2.0, 4.0, 7.0, 12.0 and 24.0 hours after the dose. The samples are centrifuged immediately to obtain plasma which is frozen until analyzed.
Analysis of plasma is performed using High Performance Liquid Chromatography (HPLC). The analytical procedure is essentially identical for each compound. The internal standard used for N-[3-[2-(1H-imidazol-1-yl)ethoxy]phenyl]-4-(2-thienyl)2-pyrimidinamine is 2-chloro-11-(4-methyl-1-piperazinyl)dibenz[b,f][1,4]oxazepine succinate, while for 2-methyl-N^4 -[4-(4-pyridinyl)-2-pyrimidinyl]-1,4-benzenediamine dihydrochloride and N-[4-[2-(diethylamino)ethoxy]phenyl]-4-(4-pyridinyl)-2-pyrimidnamine dihydrochloride the internal standard is 7-ethoxy-coumarin. In a typical procedure, a 0.4 ml volume of acetonitrile containing internal standard is added a 0.2 ml volume of serum. The sample is mixed by vortexing and centrifuged. The clear protein free supernatent fluid is decanted into a clean tube and evaporated to dryness. The dry residue is dissolved in 0.2 ml of HPLC mobile phase and 50 ul of this solution injected. Peaks corresponding to the test compound being measured and to the internal standard compound are quantitated by their absorption of ultraviolet light at 280 nm. Each set of analytical samples is accompanied by the analysis of a group of standard dog plasma samples prepared to contain amounts of the compound being measured which encompasses the concentration range of the samples.
Four normal beagle dogs weighing between 9.2 and 10.2 Kg are used in the study.

concentration at 0.5 h (Dog 1, day 1, 0.5 h): 483 ng/mL | concentration at 1 h (Dog 1, day 1, 1 h): 595 ng/mL | concentration at 2 h (Dog 1, day 1, 2 h): 392 ng/mL | concentration at 4 h (Dog 1, day 1, 4 h): 281 ng/mL | concentration at 7 h (Dog 1, day 1, 7 h): 122 ng/mL | concentration at 12 h (Dog 1, day 1, 12 h): < 30 ng/mL | AUC(0-t) (Dog 1, day 1): 2160 ng·h/mL | Cmax (Dog 1, day 1): 595 ng/mL | Tmax (Dog 1, day 1): 1 h | half-life (Dog 1, day 1): 2.75 h | AUC(0-inf) (Dog 1, day 1): 2480 ng·h/mL | concentration at 0.5 h (Dog 1, day 3, 0.5 h): < 30 ng/mL | concentration at 1 h (Dog 1, day 3, 1 h): 125 ng/mL | concentration at 2 h (Dog 1, day 3, 2 h): 98 ng/mL | concentration at 4 h (Dog 1, day 3, 4 h): < 30 ng/mL | concentration at 7 h (Dog 1, day 3, 7 h): < 30 ng/mL | concentration at 12 h (Dog 1, day 3, 12 h): < 30 ng/mL | AUC(0-t) (Dog 1, day 3): 143 ng·h/mL | Cmax (Dog 1, day 3): 125 ng/mL | Tmax (Dog 1, day 3): 1 h | AUC(0-inf) (Dog 1, day 3): 398 ng·h/mL | concentration at 0.5 h (Dog 1, day 5, 0.5 h): 339 ng/mL | concentration at 1 h (Dog 1, day 5, 1 h): 418 ng/mL | concentration at 2 h (Dog 1, day 5, 2 h): 267 ng/mL | concentration at 4 h (Dog 1, day 5, 4 h): 112 ng/mL | concentration at 7 h (Dog 1, day 5, 7 h): < 30 ng/mL | concentration at 12 h (Dog 1, day 5, 12 h): < 30 ng/mL | AUC(0-t) (Dog 1, day 5): 996 ng·h/mL | Cmax (Dog 1, day 5): 418 ng/mL | Tmax (Dog 1, day 5): 1 h | half-life (Dog 1, day 5): 1.58 h | AUC(0-inf) (Dog 1, day 5): 1290 ng·h/mL | concentration at 0.5 h (Dog 2, day 1, 0.5 h): 185 ng/mL | concentration at 1 h (Dog 2, day 1, 1 h): 334 ng/mL | concentration at 2 h (Dog 2, day 1, 2 h): 251 ng/mL | concentration at 4 h (Dog 2, day 1, 4 h): 161 ng/mL | concentration at 7 h (Dog 2, day 1, 7 h): < 30 ng/mL | concentration at 12 h (Dog 2, day 1, 12 h): < 30 ng/mL | AUC(0-t) (Dog 2, day 1): 881 ng·h/mL | Cmax (Dog 2, day 1): 334 ng/mL | Tmax (Dog 2, day 1): 1 h | half-life (Dog 2, day 1): 2.88 h | AUC(0-inf) (Dog 2, day 1): 1300 ng·h/mL | concentration at 0.5 h (Dog 2, day 3, 0.5 h): < 30 ng/mL | concentration at 1 h (Dog 2, day 3, 1 h): 205 ng/mL | concentration at 2 h (Dog 2, day 3, 2 h): 129 ng/mL | concentration at 4 h (Dog 2, day 3, 4 h): 36 ng/mL | concentration at 7 h (Dog 2, day 3, 7 h): < 30 ng/mL | concentration at 12 h (Dog 2, day 3, 12 h): < 30 ng/mL | AUC(0-t) (Dog 2, day 3): 383 ng·h/mL | Cmax (Dog 2, day 3): 205 ng/mL | Tmax (Dog 2, day 3): 1 h | half-life (Dog 2, day 3): 1.18 h | AUC(0-inf) (Dog 2, day 3): 477 ng·h/mL | concentration at 0.5 h (Dog 2, day 5, 0.5 h): 54 ng/mL | concentration at 1 h (Dog 2, day 5, 1 h): 222 ng/mL | concentration at 2 h (Dog 2, day 5, 2 h): 149 ng/mL | concentration at 4 h (Dog 2, day 5, 4 h): 30 ng/mL | concentration at 7 h (Dog 2, day 5, 7 h): < 30 ng/mL | concentration at 12 h (Dog 2, day 5, 12 h): < 30 ng/mL | AUC(0-t) (Dog 2, day 5): 447 ng·h/mL | Cmax (Dog 2, day 5): 222 ng/mL | Tmax (Dog 2, day 5): 1 h | half-life (Dog 2, day 5): 0.99 h | AUC(0-inf) (Dog 2, day 5): 525 ng·h/mL | concentration at 0.5 h (Dog 3, day 1, 0.5 h): 97 ng/mL | concentration at 1 h (Dog 3, day 1, 1 h): 325 ng/mL | concentration at 2 h (Dog 3, day 1, 2 h): 303 ng/mL | concentration at 4 h (Dog 3, day 1, 4 h): 138 ng/mL | concentration at 7 h (Dog 3, day 1, 7 h): 45 ng/mL | concentration at 12 h (Dog 3, day 1, 12 h): < 30 ng/mL | AUC(0-t) (Dog 3, day 1): 1160 ng·h/mL | Cmax (Dog 3, day 1): 325 ng/mL | Tmax (Dog 3, day 1): 1 h | half-life (Dog 3, day 1): 1.82 h | AUC(0-inf) (Dog 3, day 1): 1280 ng·h/mL | concentration at 0.5 h (Dog 3, day 3, 0.5 h): 292 ng/mL | concentration at 1 h (Dog 3, day 3, 1 h): 350 ng/mL | concentration at 2 h (Dog 3, day 3, 2 h): 220 ng/mL | concentration at 4 h (Dog 3, day 3, 4 h): 60 ng/mL | concentration at 7 h (Dog 3, day 3, 7 h): < 30 ng/mL | concentration at 12 h (Dog 3, day 3, 12 h): < 30 ng/mL
Structure (SMILES): c1cc(Nc2nccc(-c3cccs3)n2)cc(OCCn2ccnc2)c1 [N-[3-[2-(1H-imidazol-1-yl)ethoxy]phenyl]-4-(2-thienyl)-2-pyrimidinamine]
concentration in plasma over a 12 hour period (in words) (after first dose, FIG. 4): at a higher level for a longer period than the other test compounds
